Measurements taken from publication PMC3836566 (Chemical research in toxicology, 2013).
“Also recorded” adds a separate entry of the source.

What was measured:
[1] = biological target: thyroid hormone sulfotransferase activity in pooled human liver cytosol; experiment: Inhibition of 3,3′-T2 sulfotransferase activity; settings: for IC50: read-out: IC50 (nM) (95% CI) for the inhibition of 3,3′-T2S formation, 1 μM 3,3′-T2, 0.25 mg protein/ml pooled human liver cytosol, 50 μM PAPS, 30 min, 37°C; for inhibition of 3,3′-T2 sulfation (result in words): range of concentrations tested 10–1000 nM
SULT1A3 = settings: read-out: Km of 3,3′-T2 for SULT1A3; cited from earlier work
SULT1A1 = settings: read-out: Km of 3,3′-T2 for SULT1A1; cited from earlier work
[2] = tested on: thyroid hormone sulfotransferase activity in pooled human liver cytosol; experiment: 3,3′-T2 sulfation kinetics in pooled human liver cytosol; type: biochemical
[3] = tested on: thyroid hormone sulfotransferase activity; experiment: as above; type: biochemical; settings: human, pooled human liver cytosol
SULT1E1 = settings: read-out: Km of 3,3′-T2 for SULT1E1; cited from earlier work
SULT2A1 = settings: read-out: Km of 3,3′-T2 for SULT2A1; cited from earlier work
[4] = tested on: thyroid hormone sulfotransferase activity in pooled human liver cytosol; experiment: Mechanism of 3,3′-T2 sulfotransferase inhibition; type: biochemical; settings: 3,3′-T2 0–5000 nM with varying 4-OH BDE 90; Vmax lower, apparent Km unchanged

SMILES	IC50 [1]	further results
Oc1c(Br)cc(Br)cc1Br [2,4,6-TBP, 2,4,6-tribromophenol]	8.3 nM	–
Oc1c(F)cc(F)cc1F [2,4,6-TFP, 2,4,6-trifluorophenol]	4.6 nM	–
Oc1c(I)cc(I)cc1I [2,4,6-TIP, 2,4,6-triiodophenol]	140 nM	–
Oc1ccccc1Oc1ccc(Br)cc1 [2′-OH BDE 3, 2′-OH 4-monoBDE]	500 nM	–
N[C@@H](Cc1ccc(Oc2ccc(O)c(I)c2)c(I)c1)C(=O)O [3,3′-T2, 3,3′-diiodothyronine]	–	Km (SULT1A3): 31 to 35 µM; Km (SULT1A1): 0.12 µM; 3,3′-T2S formation rate under standard conditions ([2]; 1 μM 3,3′-T2, 30 min incubation, 0.25 mg protein/ml): 70–80 pmol/min.mg protein; Vmax for 3,3′-T2 sulfate formation ([2]; pooled human liver cytosol 0.25 mg protein/ml, 30 min): 153 ± 6.6 pmol/min.mg protein; Km ([2]; read-out: apparent Km for the 3,3′-T2 sulfation reaction, pooled human liver cytosol 0.25 mg protein/ml, 30 min): 1.07 ± 0.12 µM; microsomal CLint [3]: 145 µL/min/mg; Km (SULT1E1): 3.5 to 9.7 µM; Km (SULT2A1): 3 µM
Oc1c(Br)ccc(Oc2ccc(Br)cc2Br)c1Br [3-OH BDE 47, 3-OH 2,2′,4,4′-tetraBDE]	60 nM	–
Oc1cccc(Oc2ccc(Br)cc2Br)c1 [3′-OH BDE 7, 3′-OH 2,4-diBDE]	410 nM	–
Oc1cc(Oc2ccc(Br)cc2Br)ccc1Br [3′-OH BDE 28, 3′-OH 2,4,4′-triBDE]	190 nM	–
Oc1c(Br)cc(Br)c(Oc2cc(Br)c(Br)cc2Br)c1Br [3′-OH BDE 154, 3-OH 2,2′,4,4′,5,6′-hexaBDE]	80 nM	–
Oc1c(Br)cc(Oc2ccc(Br)cc2Br)c(Br)c1Br [4-OH BDE 90, 4-OH 2,2′,3,4′,5-pentaBDE]	24 nM	inhibition mechanism [4]: non-competitive
Oc1cc(Br)c(Oc2ccc(Br)cc2Br)cc1Br [4′-OH BDE 49, 4′-OH 2,2′,4,5′-tetraBDE]	650 nM	–
Oc1cc(Br)c(Oc2cc(Br)c(Br)cc2Br)cc1Br [4′-OH BDE 101, 4′-OH 2,2′,4,5, 5′-pentaBDE]	640 nM	–
Oc1c(Br)c(Br)c(Oc2c(Br)cc(Br)c(Br)c2Br)c(Br)c1Br [4′-OH BDE 201, 4′-OH 2,2′,3,3′,4,5′,6,6′-octaBDE]	510 nM	–
Oc1cc(Oc2ccc(Br)cc2Br)c(Br)cc1Br [5-OH BDE 47, 5-OH 2,2′,4,4′-tetraBDE]	400 nM	–
Oc1cc(Oc2cc(Br)c(Br)cc2Br)c(Br)cc1Br [5′-OH BDE 99, 5′-OH 2,2′,4,4′,5-pentaBDE]	520 nM	–
Oc1cc(Br)cc(Br)c1Oc1ccc(Br)cc1Br [6-OH BDE 47, 6-OH 2,2′,4,4′-tetraBDE]	130 nM	–
Oc1cc(Br)cc(Br)c1Oc1cc(Br)c(Br)cc1Br [6′-OH BDE 99, 6′-OH 2,2′,4,4′,5-pentaBDE]	310 nM	–
Brc1ccc(Oc2ccc(Br)cc2Br)c(Br)c1 [BDE 47, 2,2′,4,4′-tetrabromodiphenyl ether]	–	inhibition of 3,3′-T2 sulfation (result in words) [1]: did not inhibit 3,3′-T2 sulfation; also recorded: did not show inhibition; inhibition of 3,3′-T2 sulfation (result in words) ([1]; listed as BDE-47): did not show sulfotransferase inhibition
Oc1ccc(C(c2ccc(O)cc2)(C(F)(F)F)C(F)(F)F)cc1 [BPA-AF, 4,4′-(hexafluoroisopropylidene)diphenol]	8590 nM	–
CC(C)(c1cc(Br)c(O)c(Br)c1)c1cc(Br)c(O)c(Br)c1 [TBBPA, tetrabromobisphenol A]	460 nM	–
CC(C)(c1cc(Cl)c(O)c(Cl)c1)c1cc(Cl)c(O)c(Cl)c1 [TCBPA, 3,3′,5,5′-tetrachlorobisphenol A]	340 nM	–
CC(C)(c1cc(I)c(O)c(I)c1)c1cc(I)c(O)c(I)c1 [TIBPA, 3,3′,5,5′-tetraiodobisphenol A]	13200 nM	–
Oc1cc(Cl)ccc1Oc1ccc(Cl)cc1Cl [Triclosan, triclosan]	1410 nM	fold less potent than 3′-OH BDE 28 ([1]; 3,3′-T2 sulfotransferase inhibition potency): approximately 7 fold
